Source: US20230381273A1, “NANOPARTICLE IN WHICH ANTIBACTERIAL PEPTIDE IS ENCAPSULATED WITH CHITOSAN AND USE THEREOF” (NATIONAL MARINE BIODIVERSITY INSTITUTE OF KOREA, priority 2022, published 2023)
In brackets after ≈: the same amount, converted by molar mass. Peptide text beside a SMILES is read from it.

How the values were obtained:
Type in all cases: cell-based
[1] = MTT cell viability assay (cytotoxicity); settings: human, HEK293 cells
Procedure: After treating HEK293 cells with octominin-CNP and octominin, MTT (3-(4,5-dimethylthiazol-2-yl)-2,5-diphenyltetrazolium bromide) assay was performed to confirm cell viability.
First, HEK293 cells were cultured using DMEM (Dulbecco's modified Eagle's medium (Sigma-Aldrich, Munich, Germany)) containing 10% (v/v) fetal bovine serum (FBS, (Sigma-Aldrich, Munich, Germany)) and antibiotic-antimycotic (Thermo Fisher Scientific, Waltham, MA, USA). In addition, it was cultured for 24 hours under humidified conditions of 5% CO2 and 37° C. The cells were collected and seeded in a 96-well microplate at a cell density of 2.0×10^5 cells/mL (100 μL/well) and allowed to adhere to the well for 12 hours. The culture medium was then replaced, and they were treated with octominin-CNP (0 to 400 μg/mL) or octominin (0 to 400 μg/mL). After 24 hours of culture, the culture medium was replaced with fresh medium (90 μL), and 10 μL of MTT ([…]) was added to each well, followed by incubation at 37° C. for 4 hours. Then, 50 μL of DMSO was added to the wells in which the culture medium was eradicated to solubilize the resulting formazan dye. Their absorbances were measured at 595 nm using a microplate spectrophotometer (Bio-Rad, Saint Louis, (MO, USA)).

Acinetobacter baumannii = test system: Acinetobacter baumannii
Procedure: (§1) Prior to confirming the antibacterial and antifungal activity of octominin-CNP or free octominin, for the antibacterial activity of octominin against Acinetobacter baumannii (A. baumannii) through preliminary analysis, it was confirmed that minimum inhibitory concentration (MIC) was 5 μg/mL, and the minimum bactericidal concentration (MBC) was 10 μg/mL. In addition, for the antifungal activity against Candida albicans (C. albicans), it was confirmed that the MIC was 50 μg/mL and the minimum fungicidal concentration (MFC) was 200 μg/mL. Accordingly, the antibacterial and antifungal activities of octominin-CNP and free octominin against A. baumannii and C. albicans were confirmed at the MIC and MBC/MFC peptide concentrations.

Candida albicans = test system: Candida albicans
Procedure: as §1

## CC[C@H](C)[C@H](NC(=O)[C@H](C)NC(=O)[C@H](CCCCN)NC(=O)CNC(=O)[C@H](C)NC(=O)[C@H](Cc1c[nH]cn1)NC(=O)[C@@H](NC(=O)[C@H](C)NC(=O)CNC(=O)[C@H](CCCNC(=N)N)NC(=O)[C@@H](NC(=O)[C@H](CC(C)C)NC(=O)[C@H](Cc1c[nH]c2ccccc12)NC(=O)CN)[C@@H](C)CC)[C@@H](C)CC)C(=O)N[C@@H](Cc1c[nH]cn1)C(=O)NCC(=O)N[C@@H](CC(C)C)C(=O)N[C@H](C(=O)N[C@@H](Cc1c[nH]cn1)C(=O)N[C@@H](CCCNC(=N)N)C(=O)N[C@@H](CCCNC(=N)N)C(=O)N[C@@H](CCCNC(=N)N)C(=O)N[C@@H](Cc1c[nH]cn1)C(=O)O)[C@@H](C)CC [octominin] (H-GWLIRGAIHAGKAIHGLIHRRRH-OH)
[1]
  viability at 24 h, 400 µg/mL: 85.2%
Acinetobacter baumannii
  minimum bactericidal concentration (MBC): 10 µg/mL (≈ 3.81 µM)
  minimum inhibitory concentration (MIC): 5 µg/mL (≈ 1.9 µM)
Candida albicans
  MIC: 50 µg/mL (≈ 19 µM)
  minimum fungicidal concentration (MFC): 200 µg/mL (≈ 76.2 µM)
